In brackets after ≈: the same amount, converted by molar mass. Read-outs that look alike come from different tables or passages of the source. Numbered stars: 1 amine (or outer) side, 2 acyl side, 3 side chain; on linkers, the order of the positions; unused ones are H or OH. Bridge positions count the residues as written; N and C are the ends. Square brackets hold non-standard residues; d marks the D form. Peptide text beside a SMILES is read from it. * marks the point of attachment. Lys(Me,(CH2)4NMe(CH2)4CO) = CN(CCCCC(=O)[*:3])CCCCN(C)CCCC[C@H](N[*:1])C(=O)[*:2]; Trp(7-Me) = Cc1cccc2c(C[C@H](N)C(=O)O)c[nH]c12; 2Nal = N[C@@H](Cc1ccc2ccccc2c1)C(=O)O; 3Pal = N[C@@H](Cc1cccnc1)C(=O)O; Aun = NCCCCCCCCCCC(=O)O; Thp = NC1(C(=O)O)CCOCC1; Me2NCH2CH2 = CN(C)CC*; Aib = CC(C)(N)C(=O)O; Sar = CNCC(=O)O
Experiments:
[1] = Protease stability in simulated intestinal fluids (FaSSIF) (Table 7); type: in vitro ADME; conditions: fassif with pancreatin, 37° C.; for remaining at 1 h, 1 µM: 60 min, read-out: Remaining percentage of peptide compound, FaSSIF 60 (min); for remaining at 2 h, 1 µM: 120 min, read-out: Remaining percentage of peptide compound, FaSSIF 120 (min); for remaining at 4 h, 1 µM: 240 min, read-out: Remaining percentage of peptide compound, FaSSIF 240 (min)
Experimental: (§1) Studies were carried out in simulated intestinal fluid (SIF) and simulated gastric fluid (SGF) to evaluate gastric stability of the peptide compounds disclosed herein.
Similarly, the term “Pancreatin-SIF” refers to a solution of simulated intestinal fluid containing pancreatin whereas “SIF-media” refers to a solution of simulated intestinal fluid without pancreatin. Pancreatin-SIF was prepared by dissolving 1 mg Pancreatin (MP Biomedicals) in 10 mL SIF media concentrate (PROSENSE).
(§2) Peptide compounds were first dissolved at 1 mM stock concentration in 0.01 HCl (+/−10% of DMSO) and were than diluted further with water to a stock concentration of 20 μM. Final peptide concentration in the incubation was 1 μM.
(§3) To 76 μL of the Pepsin-SGF buffer, 4 μL of the 20 μM peptide stock solution was added and incubated at 37° C. At each timepoint (0, 60, 120 and 240 minutes) the reaction was quenched with addition of 80 μL Ethanol (0.1% HCOOH). The samples were centrifuged for 20 minutes and an aliquot of the supernatant 100 μL were transferred to a LoBind-MTP plate and analyzed by LCMS/MS. The peak area response was calculated at each time point for each test compound. As internal reference, the peak area response of the same test compound at T0 was calculated. The percentage remaining at each timepoint was calculated based on the peak area response ratio of the test compound at T0. Time 0 was set to 100%, and all later timepoints were calculated relative to time 0.

[2] = Solubility of peptide compounds in buffer formulations (Table 5); type: physicochemical; conditions: target 1 mg/ml
Experimental: Prior to the solubility measurement of a peptide batch, its purity was determined through UHPLC/MS method A.
(§4) For solubility testing the target concentration was 1 mg pure compound/ml. Therefore, solutions from solid samples were prepared in a buffer system at a concentration of 1 mg/mL compound. The solid samples were obtained by drying down aliquots of a freshly prepared dimethyl sulfoxide stock solution using a THERMO SPEEDVAC vacuum centrifuge. The dry down time was 3 hours.
The following buffer systems were applied: • Solubility buffer system A) 50 mM HCl pH 1.2 • Solubility buffer system B) 50 mM phosphate buffer pH 6.5 • Solubility buffer system C) 50 mM phosphate buffer pH 7.4 • UHPLC-UV was performed using analytical method A after 2 hours of gentle agitation from the filtered (0.45 μm filter plates) solutions, which were obtained by 10 mins of centrifugation forced filtration at 1500 RCF (relative centrifugal acceleration).
The solubility was determined by the comparison of the UV peak area of 2 μL-injections of a buffered sample diluted 1:10 with a standard curve of a dimethyl sulfoxide reference sample of known concentration. The different extinction coefficients were taken into account for the calculation.

[3] = test system: IL-23 induced STAT3 signaling (IL-23 receptor) in HEK-Blue IL-23 cells; test: Inhibition of IL-23 induced STAT3 signaling in HEK-Blue IL-23 cells, SEAP reporter (Table 9); type: cell-based; conditions: human IL23 0.25 ng/ml, overnight, read-out: Inhibition of IL-23 induced pSTAT3 (IC50 nM)
Source text: HEK-Blue™ IL-23 cells (INVIVOGEN) are designed for the detection of bioactive human (hIL-23) and murine IL-23 (mIL-23) by monitoring the activation of the STAT3 pathway. Binding of IL-23 to its receptor on the surface of HEK-Blue™ IL-23 cells triggers a signaling cascade leading to the activation of STAT3 and the subsequent production of secreted embryonic alkaline phosphatase (SEAP). This can be readily assessed using QUANTI-Blue™ Solution, a SEAP detection reagent.
HEK-Blue™ IL-23 cells were cultured as described by INVIVOGEN.
On the first day of assay 10 μL of the HEK-BLUE IL23 cell suspension (final concentration: 10,000 cells/well) and 10 μl of serially diluted peptides solutions were dispensed into a 384-well assay plate. After pre-incubation of the reaction mixtures at 37° C./5% CO2/95% humidity for 60 minutes, 10 μl of the humanIL23 cytokine (final concentration: 0.25 ng/ml) was added to each well for the STAT3 signaling activation. The plate was incubated overnight at 37° C./5% CO2/95% humidity.
On the second day 20 μl per well of QUANTI-BLUE detection solution (prepared according to the manufacture instruction) was dispensed into a new 384-well plate and followed by the transfer of 5 μl supernatant of the overnight incubated cell/sample mixtures. After incubation of 45 min at room temperature signals were measured with PHERASTAR (BMG) at OD 620-655 nm.
Dose response data were fitted with XLfit.

[4] = Protease stability in simulated gastric fluids (FaSSGF) (Table 7); type: in vitro ADME; conditions: fassgf with pepsin, 60 min, 37° C., read-out: Remaining percentage of peptide compound, FaSSGF 60 (min)
Experimental: as §1
For clarification, the term “Pepsin-SGF” refers to a solution of simulated gastric fluid containing pepsin whereas “SGF media” refers to a solution of simulated gastric fluid without pepsin. Pepsin-SGF was prepared by dissolving 320 mg Pepsin (Merck Millipore) in 100 mL SGF media concentrate (PROSENSE).
as §2
as §3, with “(0,1%” for “(0.1%”
as §3

[5] = Chemical stability (relative purity loss) of peptide compounds in buffer formulations (Table 6); type: physicochemical; conditions: 2° C. and 37° C.
Experimental: Purity of a peptide batch was determined through UHPLC/MS method A prior to chemical stability measurement.
as §4, with “stability assessment,” for “solubility testing”, “0.5” for “1”, “acetonitrile” for “dimethyl sulfoxide”
The following buffer systems were applied: • Solubility buffer system A): 50 mM HCl pH 1.2+Acetonitrile (3:1). • Solubility buffer system B): 50 mM phosphate buffer pH 6.5+Acetonitrile (3:1). • Solubility buffer system C): 50 mM phosphate buffer pH 7.4+Acetonitrile (3:1). • Prepared solutions were stored for 24 hours at 2° C. and 37° C.
After this time course, the samples were centrifuged for 15 min at 2500 RCF to create a 1:5 dilution of the supernatant. Then 2 μl of the dilution were analyzed with UHPLC-UV applying method A.
The chemical stability was rated through the relative loss of purity calculated by the equation: […]

[6] = Buffer pH 1.1 (head; method: 50 mM HCl pH 1.2), 2 h agitation, read-out: Solubility, Buffer pH 1.1
[7] = aqueous buffer, 50 mM phosphate buffer pH 6.5, 2 h agitation, read-out: Solubility, Buffer pH 6.5
[8] = aqueous buffer, 50 mM phosphate buffer pH 7.4, 2 h agitation, read-out: Solubility, Buffer pH 7.4
[9] = 50 mM phosphate buffer pH 6.5 + acetonitrile (3:1), read-out: Chemical stability (relative purity loss), Buffer pH 6.5
[10] = 50 mM phosphate buffer pH 7.4 + acetonitrile (3:1), read-out: Chemical stability (relative purity loss), Buffer pH 7.4
[11] = 50 mm hcl + acetonitrile, Buffer pH 1.1 (head; method: 50 mM HCl pH 1.2 + acetonitrile 3:1), read-out: Chemical stability (relative purity loss), Buffer pH 1.1

Row | remaining at 1 h, 1 µM [1] [%] | remaining at 2 h, 1 µM [1] [%] | remaining at 4 h, 1 µM [1] [%] | solubility at 2 h [2, 6] [µg/mL] | solubility at 2 h [2, 7] [µg/mL] | solubility at 2 h [2, 8] [µg/mL] | remaining at 1 h, 1 µM [4] [%] | degraded at 24 h [5, 9] [%] | degraded at 24 h [5, 10] [%] | degraded at 24 h [5, 11] [%] | SMILES | IC50 [3] [nM]
1 | 84 | 85 | 84 | ≥ 950 | 760 (≈ 458 µM) | 260 (≈ 157 µM) | 88 | 0 | 0.6 | 3.8 | CC(=O)NCCCC[C@@H]1NC(=O)[C@H](Cc2c[nH]c3c(C)cccc23)NC(=O)CCCCCCCCCCNC(=O)CC[C@@H](C(=O)N[C@@H](CC(N)=O)C(=O)N[C@@H](Cc2cccnc2)C(=O)N(C)CC(N)=O)NC(=O)C(C)(C)NC(=O)[C@H](Cc2ccc3ccccc3c2)NC(=O)[C@H](Cc2ccc(OCCN(C)C)cc2)NC(=O)C2(CCOCC2)NC1=O [compound 16] ([Aun][Trp(7-Me)]K(Ac)[Thp]Y(Me2NCH2CH2)[2Nal][Aib]EN[3Pal][Sar]-NH2; lactam N-8) | 0.37
2 | 88 | 85 | 85 | ≥ 960 | ≥ 1050 | ≥ 890 | 100 | 0 | 0 | 6 | Cc1cccc2c(C[C@@H]3NC(=O)CCCCN(C)CCCCN(C)CCCC[C@@H](C(=O)N[C@@H](CC(N)=O)C(=O)N[C@@H](Cc4cccnc4)C(=O)N(C)CC(N)=O)NC(=O)C(C)(C)NC(=O)[C@H](Cc4ccc5ccccc5c4)NC(=O)[C@H](Cc4ccc(OCCN(C)C)cc4)NC(=O)C4(CCOCC4)NC(=O)[C@H](CCC(N)=O)NC3=O)c[nH]c12 [compound 46] ([Trp(7-Me)]Q[Thp]Y(Me2NCH2CH2)[2Nal][Aib][Lys(Me,(CH2)4NMe(CH2)4CO)]N[3Pal][Sar]-NH2; lactam N-7) | 0.72
3 | 91 | 92 | 91 | ≥ 1180 | 340 (≈ 200 µM) | 130 (≈ 76.4 µM) | 84 | 0 | 0.1 | 3.4 | CC(=O)NCCCC[C@@H]1NC(=O)[C@H](Cc2c[nH]c3c(C)cccc23)NC(=O)CCCCCCCCCCNC(=O)CC[C@@H](C(=O)N[C@@H](CC(N)=O)C(=O)N[C@@H](Cc2cccnc2)C(=O)N(C)CC(N)=O)NC(=O)C2(CCOCC2)NC(=O)[C@H](Cc2ccc3ccccc3c2)NC(=O)[C@H](Cc2ccc(OCCN(C)C)cc2)NC(=O)C2(CCOCC2)NC1=O [compound 50] ([Aun][Trp(7-Me)]K(Ac)[Thp]Y(Me2NCH2CH2)[2Nal][Thp]EN[3Pal][Sar]-NH2; lactam N-8) | 0.19
4 | 97 | 98 | 98 | ≥ 1200 | ≥ 1060 | ≥ 990 | 101 | 0 | 0 | 6.7 | Cc1cccc2c(C[C@@H]3NC(=O)CCCCN(C)CCCCN(C)CCCC[C@@H](C(=O)NCC(=O)N[C@@H](Cc4cccnc4)C(=O)N(C)CC(N)=O)NC(=O)C(C)(C)NC(=O)[C@H](Cc4ccc5ccccc5c4)NC(=O)[C@H](Cc4ccc(OCCN(C)C)cc4)NC(=O)C4(CCOCC4)NC(=O)[C@H](CCC(N)=O)NC3=O)c[nH]c12 [compound 28] ([Trp(7-Me)]Q[Thp]Y(Me2NCH2CH2)[2Nal][Aib][Lys(Me,(CH2)4NMe(CH2)4CO)]G[3Pal][Sar]-NH2; lactam N-7) | 2.14
5 | 93 | 93 | 81 | ≥ 1020 | ≥ 960 | ≥ 1020 | 95 | 0 | 0.4 | 5.8 | CN(C)CCOc1ccc(C[C@@H]2NC(=O)C3(CCOCC3)NC(=O)[C@H](CCC(N)=O)NC(=O)[C@H](Cc3c[nH]c4ccccc34)NC(=O)CCCCN(C)CCCCN(C)CCCC[C@@H](C(=O)N[C@@H](CO)C(=O)N[C@@H](Cc3cccnc3)C(=O)N(C)CC(N)=O)NC(=O)C(C)(C)NC(=O)[C@H](Cc3ccc4ccccc4c3)NC2=O)cc1 [compound 41] (WQ[Thp]Y(Me2NCH2CH2)[2Nal][Aib][Lys(Me,(CH2)4NMe(CH2)4CO)]S[3Pal][Sar]-NH2; lactam N-7) | 4

Source: patent publication US20260297129A1, “PEPTIDES AS SELECTIVE IL-23 RECEPTOR INHIBITORS” (SANOFI, priority 2023, published 2026)
